Experimental data published in patent US20110053897A1 (IRM LLC, priority 2009, published 2011).
Read-outs that look alike come from different tables or passages of the source.

Biological target: T1, Syk kinase (Homo sapiens, UniProt P43405)
T1 construct: purchased
Experiment: Syk kinase inhibition, Caliper LabChip off-chip mobility-shift kinase assay
Assay type: biochemical
Conditions: read-out: Syk Enzyme IC50
Outline: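 Purified Syk pre-incubated 15 min with compound in 100 mM HEPES pH 7.5, 1 mM DTT, 10 mM MgCl2 or MnCl2, 0.002% Brij-35, then 1.5 μM fluorescein peptide and ATP at apparent KM added; 1–1.5 h at room temperature, 4% DMSO, EDTA stop. Microfluidic mobility-shift product/substrate conversion gave % inhibition; IC50 from 12-point series (10–0.00003 μM) by 4-parameter fit.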

Structure (SMILES): CCCc1ccnc(Nc2cc3cc[nH]c(=O)c3c(NC(C)C)n2)c1 [compound 502]
- IC50: 164 nM

Structure (SMILES): CCn1ccc2cc(Nc3cnccn3)nc(NC3CC=C(C)CC3)c2c1=O (stereo not shown) [compound 955]
- IC50 (Caliper LabChip assay): 376 nM

Structure (SMILES): CC(C)(C)Nc1nc(Nc2cc(C(O)CN)ccn2)cc2ccn(CCO)c(=O)c12 (stereo not shown) [compound 612, 6-(4-(2-amino-1-hydroxyethyl)pyridin-2-ylamino)-8-(tert-butylamino)-2-(2-hydroxyethyl)-2,7-naphthyridin-1(2H)-one]
- IC50 (Caliper LabChip assay): 453 nM

Structure (SMILES): CC(C)(C)Nc1nc(-c2cnc(N)nc2)cc2ccn(CC3CCCO3)c(=O)c12 (stereo not shown) [compound 918]
- IC50 (Caliper LabChip assay): 35 nM

Structure (SMILES): Cc1ncc(-c2cc3cc[nH]c(=O)c3c(Nc3ccc(C4CCN(C5CS(=O)(=O)C5)CC4)c(C)c3)n2)cn1 [compound 107]
- IC50: 117 nM

Structure (SMILES): Cc1cc(Nc2cc3ccn(CCO)c(=O)c3c(NC(C)(C)CO)n2)ncc1F [compound 498]
- IC50: 76 nM

Structure (SMILES): Cc1ccnc(Nc2cc3c(F)cn(C)c(=O)c3c(NC(C)C)n2)c1 [compound 567]
- IC50: 978 nM

Structure (SMILES): Nc1ncc(-c2cc3ccn(C4COC4)c(=O)c3c(NC3CCC3)n2)cn1 [compound 772]
- IC50 (Caliper LabChip assay): 25 nM

Structure (SMILES): CC(C)n1ccc2cc(Nc3cnccn3)nc(NC(C)(C)CO)c2c1=O [compound 820]
- IC50 (Caliper LabChip assay): 84 nM

Structure (SMILES): COCC(Cl)C(=O)N1CCC(c2ccc(Nc3nc(-c4cncc(OC)n4)cc4cc[nH]c(=O)c34)cc2C)CC1 (stereo not shown) [compound 90]
- IC50: 204 nM

Structure (SMILES): CCn1ccc2cc(-c3cnc(N)nc3)nc(NC3CC3)c2c1=O [compound 37]
- IC50: 69 nM

Structure (SMILES): CCn1ccc2cc(Nc3cnccn3)nc(NCC(O)C(F)(F)F)c2c1=O (stereo not shown) [compound 779, 2-ethyl-6-(pyrazin-2-ylamino)-8-((3,3,3-trifluoro-2-hydroxypropyl)amino)-2,7-naphthyridin-1(2H)-one]
- IC50 (Caliper LabChip assay): 145 nM

Structure (SMILES): CC(CO)Nc1nc(-c2cnc(N)nc2)cc2cc[nH]c(=O)c12 (stereo not shown) [compound 183]
- IC50: 203 nM

Structure (SMILES): Cc1ccnc(Nc2cc3cc[nH]c(=O)c3c(NC3CCOC3)n2)c1 (stereo not shown) [compound 273]
- IC50: 42 nM

Structure (SMILES): CCn1ccc2cc(Nc3cc(C)c(F)cn3)nc(N[C@H]3CC[C@@H](O)CC3)c2c1=O [compound 393]
- IC50: 90 nM

Structure (SMILES): CCN1CCN(Cc2n[nH]c3cc(Nc4nc(-c5ccc(C)nc5)cc5cc[nH]c(=O)c45)ccc23)CC1 [compound 203]
- IC50: 49 nM

Structure (SMILES): O=c1[nH]ccc2cc(Nc3cnccn3)nc(NC3CCCC3)c12 [compound 766]
- IC50 (Caliper LabChip assay): 7 nM

Structure (SMILES): CCCCNc1nc(Nc2cc(C)ccn2)cc2cc[nH]c(=O)c12 [compound 532]
- IC50: 250 nM

Structure (SMILES): Cn1cc2cc(Nc3nc(Nc4c[n+]([O-])ccn4)cc4ccn(CCO)c(=O)c34)ccc2n1 [compound 658]
- IC50 (Caliper LabChip assay): 99 nM

Structure (SMILES): CC(C)(C)Nc1nc(Nc2ccncn2)cc2ccn(CCO)c(=O)c12 [compound 736]
- IC50 (Caliper LabChip assay): 90 nM

Structure (SMILES): CC(C)(C)Nc1nc(Nc2cc(C3(O)COC3)ccn2)cc2ccn(CCO)c(=O)c12 [Compound No. 609, 8-(tert-butylamino)-2-(2-hydroxyethyl)-6-(4-(3-hydroxyoxetan-3-yl)pyridin-2-ylamino)-2,7-naphthyridin-1(2H)-one]
- IC50 (Caliper LabChip assay): 12 nM

Structure (SMILES): CC(C)(C)Nc1nc(Nc2cc(-c3ccnc(N)n3)ccn2)cc2ccn(CCO)c(=O)c12 [compound 691]
- IC50 (Caliper LabChip assay): 59 nM

Structure (SMILES): CCn1ccc2cc(Nc3cnccn3)nc(NS(C)(=O)=O)c2c1=O [compound 745]
- IC50 (Caliper LabChip assay): 69 nM

Structure (SMILES): COCCN1CCN(c2n[nH]c3cc(Nc4nc(-c5cncc(OC)n5)cc5cc[nH]c(=O)c45)ccc23)CC1 [compound 217]
- IC50: 29 nM

Structure (SMILES): Cn1ccc2cc(Nc3ccccn3)nc(N)c2c1=O [compound 572]
- IC50: 3270 nM

Structure (SMILES): CC(C)(C)Nc1nc(Nc2cnccn2)cc2ccn(CC(O)C(F)(F)F)c(=O)c12 (stereo not shown) [compound 1011]
- IC50 (Caliper LabChip assay): 459 nM

Structure (SMILES): Cc1ccnc(Nc2cc3ccn(CCO)c(=O)c3c(NC(C)(C)CO)n2)c1 [compound 495]
- IC50: 52 nM

Structure (SMILES): CC(C)(C)Nc1nc(-c2cnc(N)c(CO)c2)cc2ccn(CCO)c(=O)c12 [compound 720]
- IC50 (Caliper LabChip assay): 75 nM

Structure (SMILES): NC(=O)Cn1ccc2cc(-c3cnc(N)nc3)nc(NC3CCCC3)c2c1=O [compound 757]
- IC50 (Caliper LabChip assay): 59 nM

Structure (SMILES): COc1cncc(-c2cc3cc[nH]c(=O)c3c(Nc3ccc(C(=O)NCCN4CCCC4)cc3)n2)n1 [compound 82]
- IC50: 14 nM

Structure (SMILES): COc1ccnc(Nc2cc3cc[nH]c(=O)c3c(Nc3ccc(C4CCN(C5CC5)CC4)c(C)c3)n2)c1 [compound 259]
- IC50: 255 nM

Structure (SMILES): Nc1nc(Nc2nccc(O)n2)cc2ccn(CCO)c(=O)c12 [compound 812]
- IC50 (Caliper LabChip assay): 359 nM

Structure (SMILES): CC(O)c1ccnc(Nc2cc3ccn(CC(N)=O)c(=O)c3c(NC(C)(C)C)n2)c1 (stereo not shown) [compound 725]
- IC50 (Caliper LabChip assay): 31 nM

Structure (SMILES): CCn1ccc2cc(Nc3cnccn3)nc(NC[C@H]3CC[C@@](C)(O)C3)c2c1=O [compound 417]
- IC50: 95.6 nM

Structure (SMILES): COCCN1CCN(c2n[nH]c3cc(Nc4nc(-c5cncnc5)cc5cc[nH]c(=O)c45)ccc23)CC1 [compound 214]
- IC50: 17 nM

Structure (SMILES): CC1(Nc2nc(Nc3cnccn3)cc3ccn(CCO)c(=O)c23)CCC1 [compound 458]
- IC50: 11.4 nM

Structure (SMILES): CC(C)(C)Nc1nc(Nc2cc(C(C)(C)O)ncn2)cc2ccn(C[C@H](O)CO)c(=O)c12 [compound 740]
- IC50 (Caliper LabChip assay): 54 nM

Structure (SMILES): CC(C)(C)Nc1nc(Nc2c[n+]([O-])ccn2)cc2ccn(C[C@H](O)CO)c(=O)c12 [compound 674]
- IC50 (Caliper LabChip assay): 7 nM

Structure (SMILES): C#CCn1ccc2cc(Nc3cnccn3)nc(NC(C)(C)C)c2c1=O [compound 882]
- IC50 (Caliper LabChip assay): 51 nM

Structure (SMILES): CCn1ccc2cc(Nc3cnccn3)nc(NC[C@@H]3CC[C@](C)(O)C3)c2c1=O [compound 415]
- IC50: 172 nM

Structure (SMILES): Cn1cc2cc(Nc3nc(Nc4cnccn4)cc4ccn(CCO)c(=O)c34)ccc2n1 [compound 659]
- IC50 (Caliper LabChip assay): 103 nM

Structure (SMILES): NC(=O)c1ccnc(Nc2cc3cc[nH]c(=O)c3c(NC3CC3)n2)c1 [compound 559]
- IC50: 292 nM

Structure (SMILES): CCn1ccc2cc(Nc3nccc(O)n3)nc(N[C@H]3CCC[C@@H]3O)c2c1=O [compound 956]
- IC50 (Caliper LabChip assay): 66 nM

Structure (SMILES): CC(C)(C)Nc1nc(Nc2cnccn2)cc2ccn(CCOCCO)c(=O)c12 [compound 1013]
- IC50 (Caliper LabChip assay): 69 nM

Structure (SMILES): CCn1ccc2cc(-c3cnc(N)nc3)nc(N[C@@H]3CCC(F)C3)c2c1=O (stereo partly shown) [compound 749]
- IC50 (Caliper LabChip assay): 45 nM

Structure (SMILES): COC(C)c1ccnc(Nc2cc3ccn(CCO)c(=O)c3c(NC(C)(C)C)n2)c1 (stereo not shown) [compound 868]
- IC50 (Caliper LabChip assay): 16 nM

Structure (SMILES): CCn1ccc2cc(Nc3cnccn3)nc(NC(C)(CO)CO)c2c1=O [compound 809]
- IC50 (Caliper LabChip assay): 153 nM

Structure (SMILES): COc1cncc(-c2cc3cc[nH]c(=O)c3c(Nc3ccc(CCN4CC5CNCC5C4)cc3)n2)n1 (stereo not shown) [compound 433]
- IC50: 51 nM

Structure (SMILES): Cc1ccnc(Nc2cc3ccn(CCO)c(=O)c3c(N[C@H]3CCC[C@H]3O)n2)c1 (racemic) [compound 368]
- IC50: 16 nM

Structure (SMILES): O=c1[nH]ccc2cc(-c3cncnc3)nc(Nc3ccc([C@H]4CC[C@@H](N5CCOCC5)CC4)cc3)c12 [compound 10]
- IC50: 266 nM

Structure (SMILES): CC(C)(C)Nc1nc(Nc2cc(C(F)F)ccn2)cc2ccn(CCO)c(=O)c12 [compound 615]
- IC50 (Caliper LabChip assay): 9 nM

Structure (SMILES): CC1(Cn2ccc3cc(Nc4cnccn4)nc(NC4CC(F)(F)C4)c3c2=O)COC1 [compound 765]
- IC50 (Caliper LabChip assay): 52 nM

Structure (SMILES): CNC(=O)CN1CCC(c2ccc(Nc3nc(-c4cncc(OC)n4)cc4cc[nH]c(=O)c34)cc2C)CC1 [compound 135]
- IC50: 48 nM

Structure (SMILES): COc1cncc(-c2cc3cc[nH]c(=O)c3c(Nc3ccc(N4CCC(OC)CC4)cc3)n2)n1 [compound 20]
- IC50: 318 nM

Structure (SMILES): Cc1ccc(Nc2cc3cc[nH]c(=O)c3c(Nc3ccc(N4CCO[C@H](C)C4)c(C)c3)n2)nc1 [compound 582]
- IC50: 2220 nM

Structure (SMILES): CCC(=O)N1CCC(c2ccc(Nc3nc(-c4cncc(OC)n4)cc4cc[nH]c(=O)c34)cc2C)CC1 [compound 80]
- IC50: 63 nM

Structure (SMILES): C/C(=N\OCCN(C)C)c1ccnc(Nc2cc3ccn(CCO)c(=O)c3c(NC(C)(C)C)n2)c1 [compound 686]
- IC50 (Caliper LabChip assay): 246 nM

Structure (SMILES): Cc1ccc(Nc2cc3cc[nH]c(=O)c3c(Nc3ccc(N4CCOCC4)cc3)n2)nc1 [compound 545]
- IC50: 3850 nM

Structure (SMILES): O=c1[nH]ccc2cc(Nc3ccccn3)nc(NC3CCCC3)c12 [compound 296]
- IC50: 153 nM

Structure (SMILES): COc1cncc(-c2cc3cc[nH]c(=O)c3c(Nc3ccc(C4CN(C)C4)cc3)n2)n1 [compound 146]
- IC50: 4 nM

Structure (SMILES): COc1cncc(-c2cc3cc[nH]c(=O)c3c(Nc3ccc(C4CCN(CCC(=O)N5CCOCC5)CC4)c(C)c3)n2)n1 [compound 162]
- IC50: 32 nM

Structure (SMILES): CCn1ccc2cc(Nc3cc(C)ccn3)nc(N[C@@H]3CCC[C@@H]3O)c2c1=O [compound 418]
- IC50: 182 nM

Structure (SMILES): COc1cncc(-c2cc3cc[nH]c(=O)c3c(Nc3ccc(C4CCN(C5CS(=O)(=O)C5)CC4)c(C)c3)n2)n1 [compound 42]
- IC50: 26 nM

Structure (SMILES): CCn1ccc2cc(Nc3cc(C)ccn3)nc(N[C@H](CO)C(C)(C)C)c2c1=O [compound 806]
- IC50 (Caliper LabChip assay): 568 nM

Structure (SMILES): CC(C)n1ccc2cc(Nc3cnccn3)nc(N[C@H]3CC[C@H](O)CC3)c2c1=O [compound 965]
- IC50 (Caliper LabChip assay): 61 nM

Structure (SMILES): CC(C)(C)Nc1nc(Nc2cc(-c3cn[nH]c3)ncn2)cc2ccn(CCO)c(=O)c12 [compound 639]
- IC50 (Caliper LabChip assay): 285 nM

Structure (SMILES): CCN1CCN(CCc2ccc(Nc3nc(-c4cncnc4)cc4c(F)c[nH]c(=O)c34)cc2)CC1 [compound 438]
- IC50: 289 nM

Structure (SMILES): Cc1ccnc(Nc2cc3cc[nH]c(=O)c3c(NC[C@@H](C)O)n2)c1 [compound 513]
- IC50: 70 nM

Structure (SMILES): Cn1ccc2cc(Nc3cnccn3)nc(N[C@H]3CC[C@H](O)CC3)c2c1=O [compound 358]
- IC50: 49 nM

Structure (SMILES): Cn1ccc2cc(Nc3cnccn3)nc(NC(C)(C)C)c2c1=O [compound 466]
- IC50: 120 nM

Structure (SMILES): CC1(Cn2ccc3cc(Nc4cnccn4)nc(NC4CCC4)c3c2=O)COC1 [compound 755]
- IC50 (Caliper LabChip assay): 9 nM

Structure (SMILES): CCOC(=O)c1cnn(-c2cc(Nc3cc4ccn(CCO)c(=O)c4c(NC(C)(C)C)n3)ncn2)c1 [compound 889]
- IC50 (Caliper LabChip assay): 2180 nM

Structure (SMILES): Cc1cc(Nc2cc3ccn(CCO)c(=O)c3c(NC(C)(C)C)n2)ncn1 [compound 886]
- IC50 (Caliper LabChip assay): 60 nM
